Series [1] deals with Vesicular stomatitis virus. As to the kind of experiment: Antiviral activity against vesicular stomatitis virus assessed as inhibition of viral entry. Type of series: functional, organism-based.
A short description of series [2]: in vitro. As to conditions: human, A549 cells.
Series [3] has as its system Ebolavirus. As to the kind of experiment: Antiviral activity against Ebolavirus (pRESTV) assessed as inhibition of viral entry. The series is classed as functional, organism-based.
Series [4] deals with Influenza A virus. Put plainly: Antiviral activity against Influenza A virus H5N1 assessed as inhibition of viral entry. The series is classed as functional, organism-based.
The test system of series [5] is Ebolavirus. As to the kind of experiment: Antiviral activity against Ebolavirus Tai Forest assessed as inhibition of viral entry. The series is classed as functional, organism-based.
The subject of series [6] is A549. Type of series: cell-based. As to conditions: human.
Series [7] concerns Marburgvirus. As to the kind of experiment: microbe, parasite or virus in culture. To be noted: Orthomarburgvirus, Musoke, A549, 48 h.
Series [8] can be described thus: in vitro. As to conditions: human, A549 cells. The source holds these as a separate data set.
In series [9] the test system is Marburgvirus. Type of series: functional, organism-based. To be noted: Orthomarburgvirus, Angola, A549, 24 h.
Series [10] addresses T1, Estrogen receptor (Homo sapiens) (UniProt P03372).
T1 sequence (whole entry): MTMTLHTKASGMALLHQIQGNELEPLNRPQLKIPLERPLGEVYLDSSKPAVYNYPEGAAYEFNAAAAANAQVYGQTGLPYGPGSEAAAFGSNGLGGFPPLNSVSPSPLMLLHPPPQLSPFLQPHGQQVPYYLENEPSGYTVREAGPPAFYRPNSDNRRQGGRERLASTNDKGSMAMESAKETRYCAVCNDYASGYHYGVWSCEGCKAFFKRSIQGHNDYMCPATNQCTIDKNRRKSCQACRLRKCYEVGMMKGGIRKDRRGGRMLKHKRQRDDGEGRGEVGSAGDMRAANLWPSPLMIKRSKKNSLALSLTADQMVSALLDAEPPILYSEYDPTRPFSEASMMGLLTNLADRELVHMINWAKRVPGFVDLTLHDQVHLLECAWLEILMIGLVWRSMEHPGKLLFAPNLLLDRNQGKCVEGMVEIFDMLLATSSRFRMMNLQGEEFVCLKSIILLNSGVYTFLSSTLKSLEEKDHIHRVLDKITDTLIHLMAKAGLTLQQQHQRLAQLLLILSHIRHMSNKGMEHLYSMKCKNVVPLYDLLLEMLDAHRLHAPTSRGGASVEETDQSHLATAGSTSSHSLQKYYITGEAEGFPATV
As to the kind of experiment: Antagonist activity at ER-alpha in human MCF-7:WS8 cells transfected with an estrogen response element assessed as suppression of estrogen-induced response incubated for 18 hrs by luciferase reporter gene assay. As to conditions: MCF7. The series is classed as cell-based.

For series [11], the system named is Ebolavirus. Put plainly: Antiviral activity against Ebolavirus (pBDBV) assessed as inhibition of viral entry. Type of series: functional, organism-based.
Series [12] has as its target T1, Estrogen receptor (Homo sapiens). Put plainly: Agonist activity at ER-alpha in human MCF-7:WS8 cells transfected with an estrogen response element incubated for 18 hrs by luciferase reporter gene assay. The series is classed as cell-based. As to conditions: MCF7. (In general: Reporter assays use an easily measured gene product as a stand-in for the process of interest.)

Series [13] concerns Zaire ebolavirus. Put plainly: microbe, parasite or virus in culture. To be noted: Mayinga, Zaire, 1976, A549, 48 h.
Series [14] concerns Mengla dianlovirus. As to the kind of experiment: Antiviral activity against Mengla-virus assessed as inhibition of viral entry. Type of series: functional.

Structures are written as SMILES. Active and inactive are the calls of the source. The calls are words filed in the database; no cut-off is given here.

A word on the CC50: it is the concentration giving 50% cytotoxicity. A lower CC50 goes with harm at low concentration. One may read the IC50 as the concentration that inhibits the measured activity by half. A high value points to a need for much substance.

Turning to `CC/C(=C(/c1ccc(NC(=O)C2CCN(C)C2)cc1)c1ccc(OCCN2CCCC2)cc1)c1ccccc1` (centres undefined), the inhibition entry in series [1], in [4] and in series [10] was “inactive” each time. The selectivity ratio in series [2] was 30; in series [8] it was 590. Moreover, the inhibition entry in series [3], in series [5], in series [11] and in series [14] was “Active” in each case. In series [6], this compound showed a 50% cytotoxic concentration (CC50) of 11800 nM. Besides, the IC50 worked out at 720 nM in series [7], 960 nM in [9] and 20 nM in series [13]. Also, the result in series [12] was inactive.
In the case of `CC/C(=C(/c1ccc(NC(=O)C2CCN(C)CC2)cc1)c1ccc(OCCN2CCCC2)cc1)c1ccccc1`, the inhibition result in series [1], in series [4] and in [10] was “inactive” in each case. Also, the selectivity ratio in [2] turned out to be 12; in [8], 590. Also, the inhibition entry in series [3], in series [5], in series [11] and in series [14] was “Active” in each case. The half-inhibitory concentration (IC50) in series [7] amounted to 540 nM; in series [9] it was 640 nM; in series [13] it was 10 nM. In [12], the result was inactive.
As for `CN(C)CCOc1ccc(/C(=C(/CCCl)c2ccccc2)c2ccccc2)cc1` [TOREMIFENE], the selectivity ratio in [2] was found to be 6; in [8], 229. The inhibition entry in series [3], in series [5], in [11] and in series [14] was “Active” throughout. In addition, the IC50 stood at 2600 nM in [7], 3900 nM in series [9] and 70 nM in series [13].
For the compound `Nc1ccc(-c2sc3cc(O)ccc3c2Oc2ccc(OCCN3CCCCC3)cc2)cc1`, the values for the selectivity ratio in series [2] and in [8] were greater than 69 and greater than 770, respectively. Besides, the IC50 in series [7] is 1450 nM; in [9], greater than 6250 nM; in [13], 130 nM. In series [12], the result was inactive.
On to `CCC(=C(c1ccc(OCCN2CCCC2)cc1)c1ccc(OCCN2CCCC2)cc1)c1ccccc1`, for which the selectivity ratio stood at 13 in series [2] and 405 in series [8]. In addition, the midpoint of cytotoxicity in series [6], the CC50, lay at 8100 nM. Further, the IC50 in series [7] worked out at 610 nM; in series [9] it was 1560 nM; in series [13] it was 20 nM. Also, the result in series [12] was inactive.

(Values after ChEMBL document CHEMBL4665793, “Screening and Reverse-Engineering of Estrogen Receptor Ligands as Potent Pan-Filovirus Inhibitors” (J Med Chem, 2020).)
